# Assay results reported in patent US8703424B2, “Predicting human developmental toxicity of pharmaceuticals using human stem-like cells and metabolomics” (Stemina Biomarker Discovery, Inc., priority 2010, dated 2014).
# Columns and labels:
# WA09 hES cells = assay: Pathway enrichment analysis of annotated mass features on KEGG human metabolic networks (Example 8); format: cell-based; details: across dose levels; positive and negative features
# Method: Pathways enrichment analysis was performed by mapping annotated mass features for each experimental compound to human metabolic networks using KEGG compound ids. Hypergeometric p-values and false discovery rates (FDR) were used to assign a quantitative measure of statistical significance to each network. Features derived from ESI negative and positive mode for each experimental compound were pooled for this analysis. False positive results can be generated by isobaric compounds that generate multiple “hits” in a network from the same mass, so unique masses instead of unique compound ids were used for these calculations. The relevant parameters used to calculate hypergeometric p-values for each network were: the number of unique mass “hits”, the number of unique masses in the network, and the total number of unique masses in all of the human networks in the KEGG database. For each experimental compound, the p-values for the derived networks were converted to FDR using the Benjamini and Hochberg (1995) correction.
# Feature Selection was performed on a per compound basis using a one-way anova evaluating the difference of dose level means and on a per dose basis using Welch T-tests and PLS-DA VIP score. […] If a feature was selected as interesting in a drug or dose level comparison it was then evaluated experiment wide for fold changes. Following feature selection only significant features putatively annotated as mammalian in origin and present on KEGG network diagrams were further evaluated. […] These selection criteria focused the analysis on biochemical pathways.
# Following selection, features were passed through a quality control evaluation of extracted ion chromatograms (EICs) to confirm the validity of individual mass features. Features passing quality control were further evaluated to confirm estimated fold changes. After removing poor quality and duplicate features, the remaining ESI positive and ESI negative mode features were combined into a unified dataset for evaluation of pathway enrichment by treatment.
# [1] = system: WA09 human embryonic stem (hES) cells; assay: PLS-DA prediction of teratogenicity from secretome of treated hES cells (Example 9)
# Description: These included 11 known teratogens and 11 known non-teratogens. The current model is based on the mean fold change (treatment versus its associated intra-experimental control) of 15 metabolites common among the secretome of hES cells treated with pharmaceutical agents and unknown chemical compounds.
# WA09 hESCs = assay: Random forest prediction of teratogenicity from metabolomics of spent media of dosed hESCs; format: cell-based, human; details: blind study; model trained on TS1, 142 mass features; circulating dose
# [2] = DevTox pharmaceutical, high dose (H = 10x circulating dose)
# [3] = DevTox pharmaceutical, low dose (L = 0.1x circulating dose)
# [4] = EPA compounds, high dose level (H)
# [5] = EPA compounds, low dose level (L)
# [6] = EPA compounds, medium dose level (M)
compound,measurement,setting,value
CN(C)CCOC(C)(c1ccccc1)c1ccccn1 (centres unmarked) [Doxylamine],"Number of unique KEGG ID annotations: Alanine, aspartate and glutamate metabolism",WA09 hES cells,1
same,Number of unique KEGG ID annotations: Arginine and proline metabolism,WA09 hES cells,1
same,Number of unique KEGG ID annotations: Ascorbate and aldarate metabolism,WA09 hES cells,2
same,Number of unique KEGG ID annotations: Citrate cycle (TCA cycle),WA09 hES cells,1
same,Number of unique KEGG ID annotations: Cysteine and methionine metabolism,WA09 hES cells,2
same,Number of unique KEGG ID annotations: Galactose metabolism,WA09 hES cells,2
same,Number of unique KEGG ID annotations: Glutathione metabolism,WA09 hES cells,1
same,Number of unique KEGG ID annotations: Glyoxylate and dicarboxylate metabolism,WA09 hES cells,3
same,Number of unique KEGG ID annotations: Nicotinate and nicotinamide metabolism,WA09 hES cells,5
same,Number of unique KEGG ID annotations: Pantothenate and CoA biosynthesis,WA09 hES cells,3
same,Number of unique KEGG ID annotations: Pentose and glucuronate interconversions,WA09 hES cells,3
same,Number of unique KEGG ID annotations: Pentose phosphate pathway,WA09 hES cells,1
same,Number of unique KEGG ID annotations: Propanoate metabolism,WA09 hES cells,3
same,Number of unique KEGG ID annotations: Pyruvate metabolism,WA09 hES cells,6
same,Number of unique KEGG ID annotations: Vitamin B6 metabolism,WA09 hES cells,3
same,PLS-DA classification,[1]; 0.38 μM,not classified as a teratogen
same,% Non (PLS-DA class probability non-teratogen),[1]; [2],0.38
same,% Ter (PLS-DA class probability teratogen),[1]; [2],0.62
same,Confidence (difference between class probabilities),[1]; [2],0.24
same,Prediction,[1]; [2],Ter
same,% Non (PLS-DA class probability non-teratogen),[1]; [3],0.58
same,% Ter (PLS-DA class probability teratogen),[1]; [3],0.42
same,Confidence (difference between class probabilities),[1]; [3],0.16
same,Prediction,[1]; [3],Non
same,% Non (PLS-DA generated class probability),[1]; [4],0.45
same,% Ter (PLS-DA generated class probability),[1]; [4],0.55
same,Prediction,[1]; [4],Ter
same,Confidence (difference between class probabilities),"[1]; EPA compounds, high dose level (H), values less than 0.1 inconclusive",0.1
same,% Non (PLS-DA generated class probability),[1]; [5],0.41
same,% Ter (PLS-DA generated class probability),[1]; [5],0.59
same,Prediction,[1]; [5],Ter
same,Confidence (difference between class probabilities),"[1]; EPA compounds, low dose level (L), values less than 0.1 inconclusive",0.18
same,% Non (PLS-DA generated class probability),[1]; [6],0.44
same,% Ter (PLS-DA generated class probability),[1]; [6],0.56
same,Prediction,[1]; [6],Ter
same,Confidence (difference between class probabilities),"[1]; EPA compounds, medium dose level (M), values less than 0.1 inconclusive",0.12
same,Teratogenicity Classification,"[1]; [Doxylamine] 0.038 μm, devTox low",Non
same,Teratogenicity Classification,"[1]; [Doxylamine] 0.38 μm, devTox medium",Non
same,Teratogenicity Classification,"[1]; [Doxylamine] 1 μm, EPA low",Ter
same,Teratogenicity Classification,"[1]; [Doxylamine] 3.8 μm, devTox high",Ter
same,Teratogenicity Classification,"[1]; [Doxylamine] 10 μm, EPA medium",Ter
same,Teratogenicity Classification,"[1]; [Doxylamine] 100 μm, EPA high",Ter
same,"PLS-DA classification, these studies (EPA set)","[1]; all three concentrations (low, medium, and high)",teratogen
same,"PLS-DA classification, developmental toxicity assay (Table 11)",[1]; high concentration,teratogen
same,"PLS-DA classification, developmental toxicity assay (Table 11)",[1]; low and medium dose,non-teratogen
same,PLS-DA classification of EPA-provided chemical agents,[1]; overall conclusion,potential teratogens
same,Predicted teratogenicity (random forest statistical model),WA09 hESCs,Non
